Experimental data published in ChEMBL document CHEMBL3885861, “Open TG-GATES”.

Species: Rattus norvegicus
Test: Open TG-GATES - Regimen: Single
Format: toxicity, organism-based, Sprague-Dawley
Set-up: regimen Single, gender Male, age 6 weeks
Conditions: in vivo, po, 250 mg/kg, route gavage, dose level High; for APTT / Bas / Eos / Fbg / Hb / Lym / MCH / MCHC / MCV / Mono / Neu / RBC / Ret / WBC: tissue Blood; for KIDNEY_L / KIDNEY_R / KIDNEY_TOTAL: tissue Kidney; for LIVER: tissue Liver; for ALP / ALT / AST / CRE / Ca / Cl / DBIL / GLC / IP / K / LDH / Na / PL / RALB / TBIL / TC / TG / TP / gamma-GTP: tissue Plasma

O=C1CN(/N=C/c2ccc(-c3ccc([N+](=O)[O-])cc3)o2)C(O)=N1 [DANTROLENE]
APTT (3 h): 16.6 s | Bas (3 h): 0% | Eos (3 h): 1.4% | Fbg (3 h): 218.2 mg/dL | Hb (3 h): 14.5 g/dL | Lym (3 h): 76.6% | MCH (3 h): 22 pg | MCHC (3 h): 34.2% | MCV (3 h): 64.3 fL | Mono (3 h): 6.8% | Neu (3 h): 15% | RBC (3 h): 658 x10_4/ul | Ret (3 h): 11.7% | WBC (3 h): 67.2 x10_2/uL | KIDNEY_L (3 h): 0.9 g | KIDNEY_R (3 h): 0.9 g | KIDNEY_TOTAL (3 h): 1.9 g | LIVER (3 h): 9.3 g | ALP (3 h): 867.8 IU/L | ALT (3 h): 35.6 IU/L | AST (3 h): 68.8 IU/L | CRE (3 h): 0.5 mg/dL | Ca (3 h): 10.4 mg/dL | Cl (3 h): 100.6 meq/L | DBIL (3 h): 0.056 mg/dL | GLC (3 h): 223.4 mg/dL | IP (3 h): 10.3 mg/dL | K (3 h): 4.5 meq/L | LDH (3 h): 100.4 IU/L | Na (3 h): 138.4 meq/L | PL (3 h): 142 mg/dL | RALB (3 h): 3.9 g/dL | TBIL (3 h): 0.3 mg/dL | TC (3 h): 81 mg/dL | TG (3 h): 41.8 mg/dL | TP (3 h): 5.7 g/dL | gamma-GTP (3 h): 2.2 IU/L | TERMINAL_BW (6 h): 189.5 g | APTT (6 h): 17.8 s | Bas (6 h): 0% | Eos (6 h): 0.8% | Fbg (6 h): 212.2 mg/dL | Hb (6 h): 14.7 g/dL | Lym (6 h): 68.4% | MCH (6 h): 22.4 pg | MCHC (6 h): 34.4% | MCV (6 h): 65.2 fL | Mono (6 h): 6.2% | Neu (6 h): 24.6% | RBC (6 h): 656.8 x10_4/ul | Ret (6 h): 12.9% | WBC (6 h): 66.9 x10_2/uL | KIDNEY_L (6 h): 0.9 g | KIDNEY_R (6 h): 0.9 g | KIDNEY_TOTAL (6 h): 1.8 g | LIVER (6 h): 8.3 g | ALP (6 h): 725.6 IU/L | ALT (6 h): 29.6 IU/L | AST (6 h): 58.6 IU/L | CRE (6 h): 0.5 mg/dL | Ca (6 h): 10.3 mg/dL | Cl (6 h): 102.4 meq/L | DBIL (6 h): 0.086 mg/dL | GLC (6 h): 219.6 mg/dL | IP (6 h): 9 mg/dL | K (6 h): 4.4 meq/L | LDH (6 h): 110.6 IU/L | Na (6 h): 137.6 meq/L | PL (6 h): 133.4 mg/dL | RALB (6 h): 3.9 g/dL | TBIL (6 h): 0.3 mg/dL | TC (6 h): 79.2 mg/dL | TG (6 h): 19.2 mg/dL | TP (6 h): 5.6 g/dL | gamma-GTP (6 h): 1.2 IU/L | TERMINAL_BW (9 h): 185.8 g | APTT (9 h): 19.1 s | Bas (9 h): 0% | Eos (9 h): 0.2% | Fbg (9 h): 216.8 mg/dL | Hb (9 h): 14.5 g/dL | Lym (9 h): 77.8% | MCH (9 h): 21.6 pg | MCHC (9 h): 32.9% | MCV (9 h): 65.6 fL | Mono (9 h): 5.8% | Neu (9 h): 15.8% | RBC (9 h): 669.4 x10_4/ul | Ret (9 h): 12.3% | WBC (9 h): 55.5 x10_2/uL | KIDNEY_L (9 h): 0.9 g | KIDNEY_R (9 h): 0.9 g | KIDNEY_TOTAL (9 h): 1.8 g | LIVER (9 h): 8 g | ALP (9 h): 664.6 IU/L | ALT (9 h): 21.4 IU/L | AST (9 h): 50.4 IU/L | CRE (9 h): 0.6 mg/dL | Ca (9 h): 10.5 mg/dL | Cl (9 h): 103.6 meq/L | DBIL (9 h): 0.064 mg/dL | GLC (9 h): 212.2 mg/dL | IP (9 h): 8.9 mg/dL | K (9 h): 4.9 meq/L | LDH (9 h): 89.8 IU/L | Na (9 h): 136.8 meq/L | PL (9 h): 144.2 mg/dL | RALB (9 h): 3.8 g/dL | TBIL (9 h): 0.4 mg/dL | TC (9 h): 90.2 mg/dL | TG (9 h): 17.2 mg/dL | TP (9 h): 5.7 g/dL | gamma-GTP (9 h): 1.4 IU/L | TERMINAL_BW (24 h): 185 g | APTT (24 h): 17.5 s | Bas (24 h): 0% | Eos (24 h): 0.8% | Fbg (24 h): 207 mg/dL | Hb (24 h): 14.7 g/dL | Lym (24 h): 87.6% | MCH (24 h): 21.8 pg | MCHC (24 h): 33.4% | MCV (24 h): 65.3 fL | Mono (24 h): 5.8% | Neu (24 h): 5.8% | RBC (24 h): 675 x10_4/ul | Ret (24 h): 13% | WBC (24 h): 72.5 x10_2/uL | KIDNEY_L (24 h): 0.9 g | KIDNEY_R (24 h): 0.9 g | KIDNEY_TOTAL (24 h): 1.9 g | LIVER (24 h): 8.6 g | ALP (24 h): 722.6 IU/L | ALT (24 h): 24.6 IU/L | AST (24 h): 46.2 IU/L | CRE (24 h): 0.5 mg/dL | Ca (24 h): 11.1 mg/dL | Cl (24 h): 103.4 meq/L | DBIL (24 h): 0.022 mg/dL | GLC (24 h): 191.2 mg/dL | IP (24 h): 9.1 mg/dL | K (24 h): 4.8 meq/L | LDH (24 h): 102.8 IU/L | Na (24 h): 140.6 meq/L | PL (24 h): 136 mg/dL | RALB (24 h): 4 g/dL | TBIL (24 h): 0.3 mg/dL | TC (24 h): 79.6 mg/dL | TG (24 h): 21.8 mg/dL | TP (24 h): 5.7 g/dL | gamma-GTP (24 h): 1.6 IU/L
